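48-hour exposure; five concentrations; linearly interpolated endpoints. GI50: concentration for 50% inhibition of growth. TGI marks complete inhibition of growth.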
How the values were obtained:
Assay in all cases: NCI anticancer screen, dose series, 48 h
UACC-257 melanoma = system: UACC-257 melanoma
BT-549 breast = system: BT-549 breast
786-0 renal = system: 786-0 renal
SK-MEL-5 melanoma = system: SK-MEL-5 melanoma
T-47D breast = system: T-47D breast
U251 CNS = system: U251 CNS
HCT-116 colon = system: HCT-116 colon
SW-620 colon = system: SW-620 colon
HOP-92 NSCLC = system: HOP-92 NSCLC
HT29 colon = system: HT29 colon

SMILES | GI50 (UACC-257 melanoma) [µM] | TGI (UACC-257 melanoma) [µM] | GI50 (BT-549 breast) [µM] | TGI (BT-549 breast) [µM] | GI50 (786-0 renal) [µM] | TGI (786-0 renal) [µM] | GI50 (SK-MEL-5 melanoma) [µM] | TGI (SK-MEL-5 melanoma) [µM] | GI50 (T-47D breast) [µM] | TGI (T-47D breast) [µM] | GI50 (U251 CNS) [µM] | TGI (U251 CNS) [µM] | GI50 (HCT-116 colon) [µM] | TGI (HCT-116 colon) [µM] | GI50 (SW-620 colon) [µM] | TGI (SW-620 colon) [µM] | GI50 (HOP-92 NSCLC) [µM] | TGI (HOP-92 NSCLC) [µM] | GI50 (HT29 colon) [µM] | TGI (HT29 colon) [µM]
CC(C)(O)CNc1nc(Nc2ccnc(C(F)(F)F)c2)nc(-c2cccc(C(F)(F)F)n2)n1 | 21.7 | 43.6 | 16.7 | 39.7 | 18.6 | 78.5 | 13.2 | 26.3 | 17.7 | 56.7 | 25.9 | 78.2 | 17.6 | 44.5 | 26.7 | 86.5 | 23.4 | 74.2 | 17.1 | 41.2
Oc1cccc2ccc(N/N=C/c3cc(CN4CCOCC4)c(O)c4ncccc34)nc12 | 0.0368 | 0.44 | 0.0363 | 2.78 | 0.0444 | 3.75 | 0.0124 | 0.0375 | 0.0274 | 0.682 | < 0.0154 | 3.74 | 0.0223 | 2.77 |  | 2.41 | 0.0212 | 0.0678 | 0.324 | 5.92
c1ccc2cc(-c3n(Cc4ccc5ccccc5n4)c4ccccc4[n+]3Cc3ccc4ccccc4n3)ccc2c1 | 0.275 | 1.04 | 0.316 | 1.25 | 0.392 | 1.72 | 0.201 | 0.422 | 0.222 | 1.28 | 0.242 | 1.14 | 0.272 | 1.12 | 0.346 | 1.42 | 0.136 | 0.517 | 0.256 | 1.19
NS(=O)(=O)c1ccc(-c2cc3ccncc3cc2OCc2ccccc2)cc1 | > 25 | > 25 | 6.01 | > 25 | > 19.8 | > 25 | > 25 | > 25 | > 19.4 | > 25 | > 21.5 | > 25 | > 14.8 | > 25 | > 22.9 | > 25 | 4.94 | > 25 | > 16.4 | > 25
Cc1ccc(/C(C#N)=C/c2cccc([N+](=O)[O-])c2)cc1 |  | > 100 |  | > 100 |  | > 100 |  | > 100 |  | > 100 |  | > 100 |  | > 100 |  | > 100 |  | > 100 |  | > 100
Oc1ccc(C(c2ccc(O)cc2)c2ccc(Br)cn2)cc1 | 17.4 | 61.5 | 0.26 | 0.788 | 21.5 | > 79.7 | 11.9 | 24.5 | 0.177 | 0.531 | 18.5 | 50.9 | 0.517 | 14.4 | 35.9 | > 100 | 0.25 | 1.44 | 5.99 | 98.7
